Measurements published in paper PMC3923778 (PLoS Currents, 2014).
Where two headings read alike, the source gives them in different places.

How the values were obtained:
[1] = Pharmacokinetic analysis in mice; format: in vivo, mouse; details: for half-life: read-out: Half-life (t1/2) (converted); for Tmax: read-out: Observed Tmax
Description: All PK studies were conducted at Charles River Laboratories (CRL), MA, USA. CRL is fully accredited by the Association for Assessment and Accreditation of Laboratory Animal Care International (AAALAC), and is registered with the United States Department of Agriculture (USDA). All procedures involving animals were conducted humanely and were performed by trained and experienced personnel. The individual study protocols were reviewed and approved by the IACUC of CRL. A total of 48 male C57BL/6NCRL mice were used. Animals were acclimated to the study room environment for 5 days prior to dose administration. Mice were individually housed in micro isolator cages, and were kept on a 12/12 hour light/dark cycle except when interrupted for study procedures. Mice were fed LabDiet Certified Rodent Diet 5002 food ad libitum, except during fasting prior to dose administration, and had access to water ad libitum. […] For the iv doses, the compound was formulated at 1 mg/mL as a dose solution in 2% […] (NMP), 14% Propylene Glycol (PG), 14% Solutol HS–15, 70% 50mM Citrate, pH 4.5 , by volume. For the po dose, the compound was formulated at 1 mg/mL as a solution in 30% PG, 20% Solutol HS–15, 50% 50mM Citrate, pH 4.5, by volume. Aliquots (25 μL) of samples, plasma, and tissue blanks (containing internal standard only), plasma and tissue double blanks (without internal standard), control blanks (solvent only), diluted dose (dilute in plasma from the study species prior to extraction) and matrix calibration standards were dispensed into 96-well plates. Extracting solution with internal standard (100 μL) was added to all samples except matrix double blanks and solvent blanks. Extracting solution without internal standard (100 μL) was added to matrix double blanks. Samples were vortexed and centrifuged for 5 minutes, and the supernatants were transferred to a new plate. An aliquot (50 μL) of Milli-Q water was added to the samples, which were covered and vortexed for 5 minutes. […] Reserpine was used as an internal standard in the LC-MS/MS assay. Mice were divided into four groups of 3 animals each. Two blood samples were collected from each mouse following dosing; the second collection was a terminal sample and brains were also collected at that time as follows: Group 1 at 0.083 and 0.5 hr, Group 2 at 0.25 and 2 hr, Group 3 at 1 and 8 hr and Group 4 at 4 and 24 hr., and brain tissue time points at 0.5, 2, 8 and 24 hr. Non-compartmental pharmacokinetic analyses of the plasma concentration time course were performed using WinNonlin, version 5.2 (Pharsight Corp., Mountain View, California).

R6/2 mice = assay: Rear Climbing Test; format: in vivo, mouse; details: for Rear Climbing Test Rearing Frequency: p vs Vehicle-treated R6/2 mice / Rear Climbing Test Climbing Instances: p vs Vehicle-treated R6/2 mice / Rear Climbing Test Latency to Climb: p vs Vehicle-treated R6/2 mice / Rear Climbing Test Time Spent Climbing: p vs Vehicle-treated R6/2 mice: BID
Description: Motor function testing including open field and rear climbing tests were commenced at 4 weeks of age and continued at weeks 6, 8 and 12, for grip strength test at age weeks 4 and 12 and for rotarod at age weeks 4, 6 and 8. Compound treatment was started at 4 weeks of age after the baseline behavioral tests.
Rear climbing test was performed at age weeks 4, 6, 8 and 12. The mice were tested on Tuesdays. Each animal was placed into custom made pencil holder, and was scored for 5 minutes. During this period the following events were noted: 1) number of times the mouse rears without touching the mesh walls, 2) latency to climb (lifting 4 paws from the floor is labeled climbing), 3) climbing time, and 4) climbing instances.
All values are presented as mean ± Standard Error of Mean (SEM), and differences are considered to be statistically significant at the p < 0.05 level. Statistical analysis was performed using StatsDirect statistical software. Differences between group means were analyzed by 1-way-ANOVA followed by Dunnett’s test (comparison to the control (=vehicle treated TG mice) group). The acquisition of the Cued two-choice swim test was analyzed using Fisher’s exact test.

[2] = male, C57BL/6NCRL, mouse, 5 mg/kg, Brain, IV 5.0 (mg eq./kg)
[3] = male, C57BL/6NCRL, mouse, 5 mg/kg, Plasma, IV 5.0 (mg eq./kg)
[4] = Age Week 4, 10 mg/kg p.o., ANOVA
[5] = Age Week 4, 30 mg/kg p.o., ANOVA
[6] = Age Week 6, 10 mg/kg p.o., ANOVA
[7] = Age Week 6, 30 mg/kg p.o., ANOVA
[8] = Age Week 8, 10 mg/kg p.o., ANOVA
[9] = Age Week 8, 30 mg/kg p.o., ANOVA
[10] = Age Week 12, 10 mg/kg p.o., ANOVA
[11] = Age Week 12, 30 mg/kg p.o., ANOVA

## CN1C(=O)c2nc(Cc3ccc(C(F)(F)F)cc3)[nH]c2N2C1=N[C@H]1CCC[C@H]12 [SCH-51866, (+)-cis-5,6a,7,8,9,9a-hexahydro-2-[4-[trifluro-methyl]phenylmethyl]-5-methyl-cylopent[4,5]imidazo [2,1-b]purin-4(3H)one]
[1]; after oral administration
  brain concentration at Tmax exceeds the biochemical IC50 for PDE1: ~ 7 fold
[1]; following dosing
  time through which concentrations in brain were measurable for all animals: 8 h
[1]; [2]
  AUC(0-inf): 8.23 µM·h
  AUC(0-t): 8.18 µM·h
  half-life: 1.08 h
[1]; male, C57BL/6NCRL, mouse, 5 mg/kg, Brain, IV 5.0 (mg eq./kg), read-out: Observed Cmax
  Cmax: 3560 nM
[1]; [3]
  AUC(0-inf): 7.35 µM·h
  AUC(0-t): 7.31 µM·h
  half-life: 3.87 h
[1]; male, C57BL/6NCRL, mouse, 5 mg/kg, Plasma, IV 5.0 (mg eq./kg), read-out: Mean Residence Time (MRT)
  MRT: 2.57 h
[1]; male, C57BL/6NCRL, mouse, 5 mg/kg, Plasma, IV 5.0 (mg eq./kg), read-out: Plasma Clearance (CLp) (converted)
  clearance: 29.2 mL/min/kg
[1]; male, C57BL/6NCRL, mouse, 5 mg/kg, Plasma, IV 5.0 (mg eq./kg), read-out: Volume of Distribution at Steady State (Vdss)
  Vd: 4.48 L/kg
[1]; male, C57BL/6NCRL, mouse, 10 mg/kg, Brain, PO 10.0 (mg eq./kg)
  AUC(0-t): 2.2 µM·h
[1]; male, C57BL/6NCRL, mouse, 10 mg/kg, Brain, PO 10.0 (mg eq./kg), read-out: Observed Cmax
  Cmax: 475 nM
[1]; male, C57BL/6NCRL, mouse, brain, iv, 5 mg/kg, Brain, IV 5.0 (mg eq./kg)
  Tmax: 0.5 h
[1]; male, C57BL/6NCRL, mouse, brain, oral, 10 mg eq./kg, mice, read-out: Brain-to-plasma concentration ratios
  Kp: 0.1 to 0.4
[1]; male, C57BL/6NCRL, mouse, brain, po, 10 mg/kg, Brain, PO 10.0 (mg eq./kg)
  Tmax: 2 h
[1]; male, C57BL/6NCRL, mouse, plasma, 10 mg/kg po in mice, read-out: plasma Cmax exposure
  Cmax: 2400 nM
R6/2 mice; Age Week 4, 10 mg/kg p.o.
  Rear Climbing Test Rearing Frequency: p vs Vehicle-treated R6/2 mice: p=0.507
R6/2 mice; [4]
  Rear Climbing Test Climbing Instances: p vs Vehicle-treated R6/2 mice: ANOVA: p=0.484
  Rear Climbing Test Latency to Climb: p vs Vehicle-treated R6/2 mice: ANOVA: p=0.365
  Rear Climbing Test Time Spent Climbing: p vs Vehicle-treated R6/2 mice: ANOVA: p=0.853
R6/2 mice; Age Week 4, 30 mg/kg p.o.
  Rear Climbing Test Rearing Frequency: p vs Vehicle-treated R6/2 mice: p=0.186
R6/2 mice; [5]
  Rear Climbing Test Climbing Instances: p vs Vehicle-treated R6/2 mice: ANOVA: p=0.484
  Rear Climbing Test Latency to Climb: p vs Vehicle-treated R6/2 mice: ANOVA: p=0.365
  Rear Climbing Test Time Spent Climbing: p vs Vehicle-treated R6/2 mice: ANOVA: p=0.853
R6/2 mice; [6]
  Rear Climbing Test Climbing Instances: p vs Vehicle-treated R6/2 mice: ANOVA: p=0.120
  Rear Climbing Test Latency to Climb: p vs Vehicle-treated R6/2 mice: ANOVA: p=0.257
  Rear Climbing Test Rearing Frequency: p vs Vehicle-treated R6/2 mice: ANOVA: p=0.203
  Rear Climbing Test Time Spent Climbing: p vs Vehicle-treated R6/2 mice: ANOVA: p=0.291
R6/2 mice; [7]
  Rear Climbing Test Climbing Instances: p vs Vehicle-treated R6/2 mice: ANOVA: p=0.120
  Rear Climbing Test Latency to Climb: p vs Vehicle-treated R6/2 mice: ANOVA: p=0.257
  Rear Climbing Test Rearing Frequency: p vs Vehicle-treated R6/2 mice: ANOVA: p=0.203
  Rear Climbing Test Time Spent Climbing: p vs Vehicle-treated R6/2 mice: ANOVA: p=0.291
R6/2 mice; [8]
  Rear Climbing Test Climbing Instances: p vs Vehicle-treated R6/2 mice: ANOVA: p=0.166
  Rear Climbing Test Latency to Climb: p vs Vehicle-treated R6/2 mice: ANOVA: p=0.193
  Rear Climbing Test Rearing Frequency: p vs Vehicle-treated R6/2 mice: ANOVA: p=0.782
  Rear Climbing Test Time Spent Climbing: p vs Vehicle-treated R6/2 mice: ANOVA: p=0.750
R6/2 mice; [9]
  Rear Climbing Test Climbing Instances: p vs Vehicle-treated R6/2 mice: ANOVA: p=0.166
  Rear Climbing Test Latency to Climb: p vs Vehicle-treated R6/2 mice: ANOVA: p=0.193
  Rear Climbing Test Rearing Frequency: p vs Vehicle-treated R6/2 mice: ANOVA: p=0.782
  Rear Climbing Test Time Spent Climbing: p vs Vehicle-treated R6/2 mice: ANOVA: p=0.750
R6/2 mice; [10]
  Rear Climbing Test Climbing Instances: p vs Vehicle-treated R6/2 mice: ANOVA: p=0.671
  Rear Climbing Test Latency to Climb: p vs Vehicle-treated R6/2 mice: ANOVA: p=0.846
  Rear Climbing Test Rearing Frequency: p vs Vehicle-treated R6/2 mice: ANOVA: p=0.122
  Rear Climbing Test Time Spent Climbing: p vs Vehicle-treated R6/2 mice: ANOVA: p=0.724
R6/2 mice; [11]
  Rear Climbing Test Climbing Instances: p vs Vehicle-treated R6/2 mice: ANOVA: p=0.671
  Rear Climbing Test Latency to Climb: p vs Vehicle-treated R6/2 mice: ANOVA: p=0.846
  Rear Climbing Test Rearing Frequency: p vs Vehicle-treated R6/2 mice: ANOVA: p=0.122
  Rear Climbing Test Time Spent Climbing: p vs Vehicle-treated R6/2 mice: ANOVA: p=0.724
R6/2 mice; chronic administration in R6/2 mice
  rearing frequency and latency to climb a custom-made pencil holder, effect in words: no improvement
